This is an account of results in US11603515B2, “Cell culture substrate, cancer cell aggregate and method for manufacturing same using said substrate, and drug screening method using said cancer cell aggregate” (NATIONAL UNIVERSITY CORPORATION HOKKAIDO UNIVERSITY, priority 2017, dated 2023).

The subject of the experiment is microtumor consisting of PCI-55 cells. As to the kind of experiment: Evaluation of anticancer agent using microtumors (morphological change and molecular expression). The experiment is classed as cell-based, human. As for the experimental part: A total of six types of cell culture substrates with Roughness (+) or Roughness (−) of 30, 95, or 300 μm in spot diameter were used to culture human pancreatic ductal adenocarcinoma cell line PCI-55. Immediately before culturing the cells, each of the cell culture substrates was immersed in distilled water for about 30 minutes to detach the polyparaxylene layer. Then, the cell culture substrate was washed using water, sterilized with 70% ethanol, and air dried. The cell culture substrate was then fixed to the inner bottom of a culture dish (Asnol petri dish, AS ONE) with 40 mm in diameter and 13.5 mm in depth via Vaseline. After adding DMEM and washing the cell culture substrate for three times, 3×10^6 of PCI-55 cells suspended in 3 mL of DMEM were seeded on each cell culture substrate, and cultured at 37 degrees Celsius overnight to for 48 hours.
Morphological change in microtumors was observed, by adding nocodazole known as an anticancer agent with microtubule polymerization inhibitory activity to a culture medium of the microtumor consisting of PCI-55 cells formed on the cell culture substrate 1 in Example 2 so that the final concentration becomes 1 μM.

Setting [1] is: nocodazole 1 μM, 24 hours after treatment, fluorescence images (FIG. 49).

Turning to `COC(=O)Nc1nc2ccc(C(=O)c3cccs3)cc2[nH]1` [nocodazole], under setting [1], the “Cell-in-cell structure of the microtumor” value was “destructed”, the “Membranous expression of α-tubulin in the microtumor” value was “disappeared” and the “Release of cells from the inner microtumor” value is “a number of viable cells were scattered so as to overflow from the inner microtumor”. Moreover, the “Adhesion of microtumor to the spot on the cell culture substrate / morphology” value (nocodazole final concentration 1 μM, PCI-55 microtumor on cell culture substrate 1, time-lapse DIC (FIG. 48)) is “prevented from adhering to the spot on the cell culture substrate, and formed spheroidal morphology”. Moreover, for the setting “nocodazole treatment, Annexin V and EthD time-lapse images (FIG. 50)”, the “Accumulation of Annexin V on the surface of microtumor (dead cell phenotype)” value is on record as “reduced the accumulation of Annexin V on the surface of microtumor”.
